The values that follow are results of earlier work, collected in US20060287529A1, “Solid phase synthesis of antitumoral compounds” (priority 2003, published 2006).

In one data set the test system is fertilised sea urchin. As to conditions: fertilised sea urchin assay; background statement.
The next data set has as its system P388 cell line. As to conditions: P388 cell line in culture; background statement.
For another data set, the system named is A549 cell line. Conditions: A549 cell line in culture; background statement.
The next data set has as its system lung cancer cell lines. As to conditions: acting as a Type IV microtubule poison; background statement.

In the case of `COc1cc(-c2c3n(c4c(=O)oc5cc(O)c(OC)cc5c24)CCc2c-3cc(OC)c(OC)c2OC)ccc1O` [lamellarin C], in the data set on fertilised sea urchin, the “inhibition of cell division” value is recorded as “inhibition of cell division”.
Turning to `COc1ccc(-c2c3n(c4c(=O)oc5cc(O)c(OC)cc5c24)CCc2cc(O)c(OC)cc2-3)cc1O` [lamellarin L, 8,9-dihydro-3,11-dihydroxy-2,12-dimethoxy-14-(3′-hydroxy-4′-methoxy-phenyl)-6H-[1]benzopyrano[4′,3′:4,5]pyrrolo[2,1-α]isoquinolin-6-one], the cytotoxicity entry with P388 cell line and with A549 cell line was “comparable cytoxicity” throughout.
In the case of `COc1ccc(-c2c3c4cc(OC)c(O)cc4oc(=O)c3n3ccc4cc(O)c(OC)cc4c23)cc1O` [lamellarin N, 3,10-dihydroxy-2,12-dimethoxy-14-(3′-hydroxy-4′-methoxy-phenyl)-6H-[1]benzopyrano[4′,3′:4,5]pyrrolo[2,1-α]isoquinolin-6-one], the “activity in lung cancer cell lines” value with lung cancer cell lines is given as “exhibit activity”.
Consider lamellarin D, for which the “inhibition of cell division” value with fertilised sea urchin is “inhibition of cell division”.
Regarding lamellarin I, the cytotoxicity entry in the data set on P388 cell line and with A549 cell line was “comparable cytoxicity” throughout.
For lamellarin K, the cytotoxicity entry in the data set on P388 cell line and in the data set with A549 cell line was “comparable cytoxicity” each time.
